# Assay results: patent US6632977B2 (priority 1996, dated 2003)
# Read-outs that look alike come from different tables or passages of the source.
# Assays:
# δ receptor [1] = molecular target: T1, δ receptor (Mus musculus, UniProt P32300); conditions: for Bmax: [3H]NTI, μ receptor gene line; for NTI Bmax: kappa receptor gene line
# [2] = test system: mixed lymphocyte reaction (MLR); conditions: in vitro; cited from earlier work
# transplant rejection = conditions: in vivo; cited from earlier work
# δ receptor [3] = molecular target: T1, δ receptor; assay: biochemical
# adenylate cyclase = assay: Adenylate cyclase activity in brain homogenates after morphine deficiency induced by naloxone; assay type: in vivo, mice; set-up: Adenylate cyclase activity stimulated by forskolin: dose or concentration left out as unconfirmed; conditions: for increase in adenylate cyclase activity in the striatum: naloxone after chronic morphine; for Adenylate cyclase activity stimulated by forskolin: FK; for Adenylate cyclase activity stimulated by forskolin / Adenylate cyclase activity, basal: chronic morphine then naloxone
# T1 sequence (P32300 whole entry): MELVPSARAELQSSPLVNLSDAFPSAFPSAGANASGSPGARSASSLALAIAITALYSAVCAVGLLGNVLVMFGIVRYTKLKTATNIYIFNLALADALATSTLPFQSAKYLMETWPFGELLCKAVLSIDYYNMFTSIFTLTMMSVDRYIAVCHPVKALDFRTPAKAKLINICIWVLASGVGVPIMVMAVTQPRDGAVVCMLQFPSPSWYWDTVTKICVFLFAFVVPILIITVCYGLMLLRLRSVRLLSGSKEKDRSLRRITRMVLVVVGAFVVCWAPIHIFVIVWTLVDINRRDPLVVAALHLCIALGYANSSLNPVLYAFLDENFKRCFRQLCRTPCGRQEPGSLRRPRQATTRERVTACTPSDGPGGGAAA
smiles,measurement,setting,value
"Oc1ccc2c3c1O[C@H]1c4[nH]c5ccccc5c4C[C@@]4(O)[C@@H](C2)N(CC2CC2)CC[C@]314 [NTI, naltrindole]",Bmax,δ receptor [1]; heterozygous +/−,0.103
same,Bmax,δ receptor [1]; homozygous −/−,0.124
same,Bmax,δ receptor [1]; wild +/+,0.095
same,binding curves (Scatchard) compared between genotypes,"δ receptor [1]; brains of +/+, +/− and −/− MOR mice",superimposable
same,change in binding of the delta ligands,δ receptor [1]; kappa mutant animals with respect to wild animals,no change in the binding
same,NTI Bmax,δ receptor [1]; heterozygous +/−,0.170 pmole/mg proteins
same,NTI Bmax,δ receptor [1]; homozygous −/−,0.190 pmole/mg proteins
same,NTI Bmax,δ receptor [1]; wild +/+,0.204 pmole/mg proteins
same,effect on the mixed lymphocyte reaction (MLR),[2],suppressant effect
same,effect on transplant rejection,transplant rejection,prevents transplant rejection
same,Kd,"δ receptor [3]; Kd, [3H]NTI, μ receptor gene line, heterozygous +/−",0.075 nM
same,Kd,"δ receptor [3]; Kd, [3H]NTI, μ receptor gene line, homozygous −/−",0.082 nM
same,Kd,"δ receptor [3]; Kd, [3H]NTI, μ receptor gene line, wild +/+",0.068 nM
same,Kd,"δ receptor [3]; NTI Kd, kappa receptor gene line, heterozygous +/−",0.109 nM
same,Kd,"δ receptor [3]; NTI Kd, kappa receptor gene line, homozygous −/−",0.114 nM
same,Kd,"δ receptor [3]; NTI Kd, kappa receptor gene line, wild +/+",0.108 nM
CN1CC[C@]23c4c5ccc(O)c4O[C@H]2[C@@H](O)C=C[C@H]3[C@H]1C5 [morphine],increase in adenylate cyclase activity in the striatum,adenylate cyclase; animals deficient in the μ receptor,absent
same,Adenylate cyclase activity stimulated by forskolin,"adenylate cyclase; cerebellum, μ +/+",966 ± 55 pmoles of cyclic AMP formed/minute/mg of protein
same,"Adenylate cyclase activity, basal","adenylate cyclase; cerebellum, μ +/+",209 ± 30 pmoles of cyclic AMP formed/minute/mg of protein
same,Adenylate cyclase activity stimulated by forskolin,"adenylate cyclase; cerebellum, μ −/−",979 ± 73 pmoles of cyclic AMP formed/minute/mg of protein
same,"Adenylate cyclase activity, basal","adenylate cyclase; cerebellum, μ −/−",213 ± 42 pmoles of cyclic AMP formed/minute/mg of protein
same,Adenylate cyclase activity stimulated by forskolin,"adenylate cyclase; striatum, μ +/+",1473 ± 43 pmoles of cyclic AMP formed/minute/mg of protein
same,"Adenylate cyclase activity, basal","adenylate cyclase; striatum, μ +/+",401 ± 22 pmoles of cyclic AMP formed/minute/mg of protein
same,Adenylate cyclase activity stimulated by forskolin,"adenylate cyclase; striatum, μ −/−",1158 ± 108 pmoles of cyclic AMP formed/minute/mg of protein
same,"Adenylate cyclase activity, basal","adenylate cyclase; striatum, μ −/−",304 ± 28 pmoles of cyclic AMP formed/minute/mg of protein
same,increase in adenylate cyclase activity in the striatum,adenylate cyclase; wild mice,30%
